Molecular target: GluA1o-γ8 (GRIA1o-CACNG8 fusion construct; TARP γ8 dependent AMPA receptor) (Homo sapiens (Human), UniProt P42261+Q8WXS5)
Test: Calcium flux assay (FLIPR), inhibition of glutamate response of GluA1o-γ8 channel
Type: cell-based
Conditions: HEK293 cells stably expressing GRIA1o-CACNG8 fusion; 15 μM glutamate; pIC50 = negative log of IC50 in molar; read-out: GluR1-γ8 (pIC50) (converted)
Summary of the method: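 Potency is the midpoint of a four-parameter logistic fit to control-normalized FLIPR calcium responses elicited by 15 μM glutamate. Stable HEK293 cells carried a fused GluA1o-γ8 construct and were preincubated with compound and calcium dye in pH 7.4 HEPES buffer.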

GluA1o-γ8 (GRIA1o-CACNG8 fusion construct; TARP γ8 dependent AMPA receptor), sequence (P42261 other isoform, or with tags, fused parts or gaps): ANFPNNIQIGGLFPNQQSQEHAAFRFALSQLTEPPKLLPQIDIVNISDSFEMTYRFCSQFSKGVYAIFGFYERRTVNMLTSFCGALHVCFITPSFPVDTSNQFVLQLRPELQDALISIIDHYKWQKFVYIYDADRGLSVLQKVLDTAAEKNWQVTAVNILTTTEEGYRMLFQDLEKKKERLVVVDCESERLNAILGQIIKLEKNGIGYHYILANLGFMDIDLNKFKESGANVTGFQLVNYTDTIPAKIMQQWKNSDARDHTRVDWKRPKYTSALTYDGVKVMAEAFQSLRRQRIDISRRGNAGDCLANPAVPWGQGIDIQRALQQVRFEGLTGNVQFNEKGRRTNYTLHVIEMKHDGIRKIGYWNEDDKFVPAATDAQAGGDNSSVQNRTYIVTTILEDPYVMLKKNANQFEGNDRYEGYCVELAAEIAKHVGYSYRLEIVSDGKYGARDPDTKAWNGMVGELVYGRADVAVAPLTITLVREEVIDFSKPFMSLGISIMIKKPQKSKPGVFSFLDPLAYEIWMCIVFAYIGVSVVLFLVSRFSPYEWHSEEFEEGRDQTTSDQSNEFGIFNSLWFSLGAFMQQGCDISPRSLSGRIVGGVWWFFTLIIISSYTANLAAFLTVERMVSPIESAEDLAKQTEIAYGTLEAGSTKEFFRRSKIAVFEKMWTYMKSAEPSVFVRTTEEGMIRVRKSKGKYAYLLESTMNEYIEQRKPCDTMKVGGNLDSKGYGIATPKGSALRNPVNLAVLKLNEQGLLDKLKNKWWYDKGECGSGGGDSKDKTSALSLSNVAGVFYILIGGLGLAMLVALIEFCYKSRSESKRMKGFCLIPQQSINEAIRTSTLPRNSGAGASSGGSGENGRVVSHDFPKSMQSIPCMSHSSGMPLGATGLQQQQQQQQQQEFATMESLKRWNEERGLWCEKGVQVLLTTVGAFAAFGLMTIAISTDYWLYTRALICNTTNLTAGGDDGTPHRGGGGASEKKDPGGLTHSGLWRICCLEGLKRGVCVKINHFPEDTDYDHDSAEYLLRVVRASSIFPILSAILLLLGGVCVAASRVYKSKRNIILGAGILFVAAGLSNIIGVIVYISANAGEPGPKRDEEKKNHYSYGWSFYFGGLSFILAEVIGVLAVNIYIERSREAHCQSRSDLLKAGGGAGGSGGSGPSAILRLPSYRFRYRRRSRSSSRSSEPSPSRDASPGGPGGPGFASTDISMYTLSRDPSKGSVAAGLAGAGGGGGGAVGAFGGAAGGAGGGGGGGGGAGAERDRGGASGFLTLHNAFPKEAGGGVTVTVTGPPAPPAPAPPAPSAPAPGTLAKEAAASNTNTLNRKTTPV

IC50 [nM] | SMILES
2 | N#Cc1ccc(-c2nc3c(N4CCOCC4)nccn3c2-c2ccc3c(c2)CC(=O)N3)cc1 [Example 102, 4-[8-Morpholino-3-(2-oxoindolin-5-yl)imidazo[1,2-a]pyrazin-2-yl]benzonitrile]
0.794 | CC(=O)N1CCN(c2nccn3c(-c4ccc5[nH]ncc5c4)c(-c4ccc(C#N)cc4)nc23)CC1 [Example 103, 4-[8-(4-Acetylpiperazin-1-yl)-3-(1H-indazol-5-yl)imidazo[1,2-a]pyrazin-2-yl]benzonitrile]
5.01 | CC(=O)N1CCN(c2nccn3c(-c4ccc5[nH]c(=O)[nH]c5c4)c(-c4ccc(C#N)cc4)nc23)CC1 [Example 106, 4-[8-(4-Acetylpiperazin-1-yl)-3-(2-oxo-1,3-dihydrobenzimidazol-5-yl)imidazo[1,2-a]pyrazin-2-yl]benzonitrile]
0.0631 | O=C1CCN(c2nccn3c(-c4ccc5c(c4)CC(=O)N5)c(-c4ccc(F)cc4)nc23)CC1 [Example 109, 5-(2-(4-Fluorophenyl)-8-(4-oxopiperidin-1-yl)imidazo[1,2-a]pyrazin-3-yl)indolin-2-one]
1.26 | CN1CCN(c2nccn3c(-c4ccc5c(c4)CC(=O)N5)c(-c4ccc(F)cc4)nc23)CC1=O [Example 110, 5-(2-(4-fluorophenyl)-8-(4-methyl-3-oxopiperazin-1-yl)imidazo[1,2-a]pyrazin-3-yl)indolin-2-one]
1.58 | CC1C(=O)N(C)CCN1c1nccn2c(-c3ccc4c(c3)CC(=O)N4)c(-c3ccc(F)cc3)nc12 (stereo not shown) [Example 111, 5-(8-(2,4-Dimethyl-3-oxopiperazin-1-yl)-2-(4-fluorophenyl)imidazo[1,2-a]pyrazin-3-yl)indolin-2-one]
0.794 | CC(C)(C)OC(=O)N1CCN(c2ncc(Br)n3c(-c4ccc5c(c4)CC(=O)N5)c(Cc4ccccc4)nc23)CC1 [Example 112, tert-Butyl 4-(2-benzyl-5-bromo-3-(2-oxoindolin-5-yl)imidazo[1,2-a]pyrazin-8-yl)piperazine-1-carboxylate]
0.316 | CC(=O)N1CCN(c2ncc(Br)n3c(-c4ccc5c(c4)CC(=O)N5)c(Cc4ccccc4)nc23)CC1 [Example 113, 5-(8-(4-Acetylpiperazin-1-yl)-2-benzyl-5-bromoimidazo[1,2-a]pyrazin-3-yl)indolin-2-one]
2 | CC(=O)N1CCN(c2ncc(C)n3c(-c4ccc5c(c4)CC(=O)N5)c(Cc4ccccc4)nc23)CC1 [Example 114, 5-(8-(4-Acetylpiperazin-1-yl)-2-benzyl-5-methylimidazo[1,2-a]pyrazin-3-yl)indolin-2-one]
7.94 | O=C1Nc2ccc(-c3c(-c4ccc(F)cc4)nc4c(N5CCOCC5)nccn34)cc2CO1 [Example 124, 6-[2-(4-fluorophenyl)-8-morpholino-imidazo[1,2-a]pyrazin-3-yl]-1,4-dihydro-3,1-benzoxazin-2-one]
398 | CS(=O)(=O)c1nccn2c(-c3ccc4c(c3)CC(=O)N4)c(-c3ccc(F)cc3)nc12 [Example 127, 5-[2-(4-Fluorophenyl)-8-methylsulfonyl-imidazo[1,2-a]pyrazin-3-yl]indolin-2-one]
631 | C[S+]([O-])c1nccn2c(-c3ccc4c(c3)CC(=O)N4)c(-c3ccc(F)cc3)nc12 (stereo not shown) [Example 128, 5-[2-(4-Fluorophenyl)-8-methylsulfinyl-imidazo[1,2-a]pyrazin-3-yl]indolin-2-one]
7.94 | O=C1Cc2cc(-c3c(-c4ccccc4)nc4c(C5=CCOCC5)nccn34)ccc2N1 [Example 131, 5-(8-(3,6-Dihydro-2H-pyran-4-yl)-2-phenylimidazo[1,2-a]pyrazin-3-yl)indolin-2-one]
631 | O=C1Cc2cc(-c3c(-c4ccc(F)cc4)nc4c(F)nccn34)ccc2N1 [Example 132, 5-[8-Fluoro-2-(4-fluorophenyl)imidazo[1,2-a]pyrazin-3-yl]indolin-2-one]
251 | Cc1nccn2c(-c3ccc4c(c3)CC(=O)N4)c(-c3ccc(F)cc3)nc12 [Example 133, 5-[2-(4-Fluorophenyl)-8-methyl-imidazo[1,2-a]pyrazin-3-yl]indolin-2-one]
158 | O=C1Cc2cc(-c3c(-c4ccccc4)nc4cnccn34)ccc2N1 [Example 134, 5-(2-Phenylimidazo[1,2-a]pyrazin-3-yl)indolin-2-one]
6.31 | O=C1Cc2cc(-c3c(C(=O)Nc4ccccc4)nc4c(N5CCOCC5)nccn34)ccc2N1 [Example 137, 8-Morpholino-3-(2-oxoindolin-5-yl)-N-phenylimidazo[1,2-a]pyrazine-2-carboxamide]
25.1 | O=C(NCc1ccccc1)c1nc2c(N3CCOCC3)nccn2c1-c1ccc2[nH]c(=O)[nH]c2c1 [Example 139, N-Benzyl-8-morpholino-3-(2-oxo-1,3-dihydrobenzimidazol-5-yl)imidazo[1,2-a]pyrazine-2-carboxamide]
20 | O=C(Nc1ccccc1)c1nc2c(N3CCOCC3)nccn2c1-c1ccc2[nH]c(=O)[nH]c2c1 [Example 140, 8-Morpholino-3-(2-oxo-1,3-dihydrobenzimidazol-5-yl)-N-phenyl-imidazo[1,2-a]pyrazine-2-carboxamide]

Second part, the molecule before the results:

SMILES | IC50 [nM]
CN(C)c1nccn2c(-c3ccc4[nH]c(=O)[nH]c4c3)c(-c3ccc(F)cc3)nc12 [Example 101, 5-[8-(Dimethylamino)-2-(4-fluorophenyl)imidazo[1,2-a]pyrazin-3-yl]-1,3-dihydrobenzimidazol-2-one] | 0.501
CNc1nccn2c(-c3ccc4[nH]c(=O)[nH]c4c3)c(-c3ccc(F)cc3)nc12 [Example 104, 5-[2-(4-Fluorophenyl)-8-(methylamino)imidazo[1,2-a]pyrazin-3-yl]-1,3-dihydrobenzimidazol-2-one] | 6.31
N#Cc1ccc(-c2nc3c(N4CCOCC4)nccn3c2-c2ccc3[nH]c(=O)[nH]c3c2)cc1 [Example 105, 4-[8-Morpholino-3-(2-oxo-1,3-dihydrobenzimidazol-5-yl)imidazo[1,2-a]pyrazin-2-yl]benzonitrile] | 1.26
O=S1(=O)Cc2cc(-c3c(-c4ccc(F)cc4)nc4c(N5CC6(COC6)C5)nccn34)ccc2N1 [Example 108, 5-(2-(4-Fluorophenyl)-8-(2-oxa-6-azaspiro[3.3]heptan-6-yl)imidazo[1,2-a]pyrazin-3-yl)-1,3-dihydrobenzo[c]isothiazole 2,2-dioxide] | 15.8
O=c1[nH]c2ccc(-c3c(-c4ccc(F)cc4)nc4c(N5CCOCC5)nccn34)cc2o1 [Example 116, 6-(2-(4-Fluorophenyl)-8-morpholinoimidazo[1,2-a]pyrazin-3-yl)benzo[d]oxazol-2(3H)-one] | 3.16
O=S1(=O)Cc2cc(-c3c(-c4ccc(F)cc4)nc4c(N5CCOCC5)nccn34)ccc2N1 [Example 117, 5-[2-(4-Fluorophenyl)-8-morpholino-imidazo[1,2-a]pyrazin-3-yl]-1,3-dihydro-2,1-benzothiazole 2,2-dioxide] | 3.98
O=c1[nH]c2ccc(-c3c(-c4ccc(F)cc4)nc4c(N5CCOCC5)nccn34)cc2s1 [Example 118, 6-[2-(4-Fluorophenyl)-8-morpholino-imidazo[1,2-a]pyrazin-3-yl]-3H-1,3-benzothiazol-2-one] | 0.316
O=S1(=O)Cc2cc(-c3c(-c4ccc(F)cc4)nc4c(N5CCC(O)CC5)nccn34)ccc2N1 [Example 119, 1-[3-(2,2-Dioxo-1,3-dihydro-2,1-benzothiazol-5-yl)-2-(4-fluorophenyl)imidazo[1,2-a]pyrazin-8-yl]piperidin-4-ol] | 3.16
O=C1NCc2cc(-c3c(-c4ccc(F)cc4)nc4c(N5CCOCC5)nccn34)ccc2N1 [Example 120, 6-[2-(4-Fluorophenyl)-8-morpholino-imidazo[1,2-a]pyrazin-3-yl]-3,4-dihydro-1H-quinazolin-2-one] | 100
Nc1nc2cc(-c3c(-c4ccc(F)cc4)nc4c(N5CCOCC5)nccn34)ccc2[nH]1 [Example 121, 5-[2-(4-Fluorophenyl)-8-morpholino-imidazo[1,2-a]pyrazin-3-yl]-1H-benzimidazol-2-amine] | 631
O=c1ccc2cc(-c3c(-c4ccc(F)cc4)nc4c(N5CCOCC5)nccn34)ccc2[nH]1 [Example 125, 6-[2-(4-Fluorophenyl)-8-morpholino-imidazo[1,2-a]pyrazin-3-yl]-1H-quinolin-2-one] | 39.8
Oc1ccc(-c2c(-c3ccc(F)cc3)nc3c(N4CCCC4)nccn23)cc1 [Example 126, 4-[2-(4-Fluorophenyl)-8-pyrrolidin-1-yl-imidazo[1,2-a]pyrazin-3-yl]phenol] | 50.1
CC(C)Oc1nccn2c(-c3ccc4c(c3)CC(=O)N4)c(-c3ccc(F)cc3)nc12 [Example 129, 5-[2-(4-Fluorophenyl)-8-isopropoxy-imidazo[1,2-a]pyrazin-3-yl]indolin-2-one] | 20
CC(=O)N1CC=C(c2nccn3c(-c4ccc(O)cc4)c(-c4ccc(F)cc4)nc23)CC1 [Example 130, 1-[4-[2-(4-Fluorophenyl)-3-(4-hydroxyphenyl)imidazo[1,2-a]pyrazin-8-yl]-3,6-dihydro-2H-pyridin-1-yl]ethanone] | 158
O=C1Cc2cc(-c3c(-c4ccc(F)cc4)nc4cnccn34)ccc2N1 [Example 135, 5-(2-(4-Fluorophenyl)imidazo[1,2-a]pyrazin-3-yl)indolin-2-one] | 100
O=C1Nc2ccc(-c3c(-c4ccc(F)cc4)nc4c(N5CCOCC5)nccn34)cc2C1(F)F [Example 136, 3,3-Difluoro-5-[2-(4-fluorophenyl)-8-morpholino-imidazo[1,2-a]pyrazin-3-yl]indolin-2-one] | 398
O=C(Nc1ccccc1)c1nc2c(N3CCOCC3)nccn2c1-c1ccc(O)cc1 [Example 138, 3-(4-Hydroxyphenyl)-8-morpholino-N-phenyl-imidazo[1,2-a]pyrazine-2-carboxamide] | 20
CN(C)c1nccn2c(-c3ccc4c(c3)CC(=O)N4)c(-c3ccc(F)cc3)nc12 [Example 141, 5-[8-(Dimethylamino)-2-(4-fluorophenyl)imidazo[1,2-a]pyrazin-3-yl]indolin-2-one] | 0.794
